# Measured values reported in patent US8602215B2, “Methods for reducing the risk of an adverse dronedarone/beta-blockers interaction in a patient suffering from atrial fibrillation” (Sanofi, priority 2010, dated 2013).
# Structures can show the parent of a compound that is named as a salt. Where two headings read alike, the source gives them in different places.
# How the values were obtained:
# [1] = human, in vivo
# [2] = system: patients with atrial fibrillation or atrial flutter; experiment: ATHENA clinical study, patients with beta-blockers baseline medication; type: in vivo
# Description: The relative risk (RR) was estimated using Cox's […] regression model.
# The relative risk (RR) is the ratio of the rates of occurrence of a hospitalization or of a death among the patients on dronedarone, relative to the patients on placebo.
# The percentage reduction x of a given event (hospitalization, death, cardiovascular death, etc.) is calculated in the following way: x=1−relative risk. Results Relating to the Prevention of Cardiovascular Hospitalization or Death
# [3] = system: healthy male caucasian subjects; experiment: Metoprolol/dronedarone interaction study: pharmacodynamics, myocardial contractility (Example 1); type: in vivo, human (healthy male caucasian subjects); conditions: dronedarone 800 mg BID added on top of metoprolol 200 mg OD; p=0.0002
# Description: (§1) All treatments were administered in fed conditions.
# The pharmacodynamic analyses were based on the change in Day 5 and Day 13 measurements, using a one-way analysis of variance (ANOVA) model with term for dose, for both primary and secondary endpoints; estimates and 95% confidence intervals (CI) of the difference in mean CHGDay13-5 between dronedarone dose groups and the placebo group were derived within the ANOVA framework. As the sample size calculation was based on the comparison of the highest dronedarone dose versus placebo, pairwise comparison were performed without adjustment of the overall treatment first type error rate. Safety evaluation was based upon a review of individual values and descriptive statistics (listings, summary tables, graphics).
# [4] = target: T1, CYP2D6 (Homo sapiens, UniProt P10635); experiment: CYP2D6 inhibition in vivo, from metoprolol interaction (Example 1); parameters: species or system human (CYP2D6 extensive metabolizer subjects); conditions: dronedarone 400 mg BID, metoprolol 200 mg OD as substrate
# T1 construct: endogenous in cells; host or cells: healthy human volunteers in vivo (endogenous enzyme, CYP2D6 extensive metabolizers)
# Description: as §1
# The interaction ratio is lower than the existing 3-(Cmax) to 6-fold (AUC) difference in metoprolol exposure between poor and extensive CYP2D6 metabolizers.
# [5] = system: healthy male subjects; experiment: Propranolol/dronedarone interaction study: pharmacodynamics, electrocardiogram and vital signs at rest and during sub-maximal exercise (Example 2); type: in vivo, human (healthy male subjects)
# Description: as §1
# Pharmacodynamics: Resting vital signs were summarized by the synthetic parameter AUC0-8 and analyzed for “treatment effects and chronological (“time”) effects using repeated measures analysis of variance. Exercise vital signs were analyzed in a similar manner; the electrocardiogram exercise data were not formally analyzed and presented using descriptive statistics.
# [6] = clinical; conditions: male, human, in vivo
# [7] = Metoprolol/dronedarone interaction study: plasma pharmacokinetics of metoprolol (Example 1); conditions: dronedarone 400 mg BID + metoprolol 200 mg OD; CYP2D6 extensive metabolizer subjects
# [8] = human, in vivo; remark: listed apart in the source
# [9] = existing difference, quoted for comparison; cited from earlier work
# [10] = 1628 patients with beta-blockers baseline medication, placebo 673 of 1641
# [11] = versus placebo, Cox model, beta-blockers baseline medication
# [12] = versus placebo, beta-blockers baseline medication
# T1 sequence (P10635 whole entry): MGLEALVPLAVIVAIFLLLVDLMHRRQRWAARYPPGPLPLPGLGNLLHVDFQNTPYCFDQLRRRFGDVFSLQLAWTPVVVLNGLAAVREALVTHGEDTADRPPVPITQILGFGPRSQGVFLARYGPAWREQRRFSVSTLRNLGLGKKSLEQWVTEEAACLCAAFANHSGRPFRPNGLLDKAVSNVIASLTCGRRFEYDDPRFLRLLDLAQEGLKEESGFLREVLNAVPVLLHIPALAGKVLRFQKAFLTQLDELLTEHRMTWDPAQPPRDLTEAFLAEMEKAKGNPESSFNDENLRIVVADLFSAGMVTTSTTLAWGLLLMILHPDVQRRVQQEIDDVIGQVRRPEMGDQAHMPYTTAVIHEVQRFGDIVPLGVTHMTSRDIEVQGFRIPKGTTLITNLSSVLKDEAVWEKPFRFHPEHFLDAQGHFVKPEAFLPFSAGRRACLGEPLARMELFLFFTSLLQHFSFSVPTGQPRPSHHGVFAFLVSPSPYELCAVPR
smiles,measurement,setting,value
CCCCNCCCOc1ccc(C(=O)c2c(CCCC)oc3ccc(NS(C)(=O)=O)cc23)cc1 [SR35021],AUC0-24,[1],768.6 (278.4) ng · h/ml
same,Cmax,[1],85.9 (28.8) ng/ml
same,tmax,[1],5.13 (0.72) h
CCCCc1oc2ccc(NS(C)(=O)=O)cc2c1C(=O)c1ccc(OCCCN(CCCC)CCCC)cc1 [dronedarone hydrochloride],"death due to stroke, events reported","[2]; 1628 patients with beta-blockers baseline medication, placebo 11 of 1641",10 events
same,"sudden cardiac death, events reported","[2]; 1628 patients with beta-blockers baseline medication, placebo 25 of 1641",9 events
same,"hospitalization for congestive heart failure (CHF), events reported","[2]; 1628 patients with beta-blockers baseline medication, placebo 96 of 1641",85 events
same,"cardiovascular hospitalization or death, events reported",[2]; [10],553 events
same,"death, events reported",[2]; [10],553 events
same,relative risk of cardiovascular hospitalization or death,[2]; [11],0.777
same,relative risk of death,[2]; [11],0.777
same,relative risk of death due to stroke,[2]; [11],0.909
same,relative risk of hospitalization for CHF,[2]; [11],0.888
same,relative risk of sudden cardiac death,[2]; [11],0.362
same,decrease of CHF,[2]; [12],12%
same,decrease of cardiovascular hospitalization or death,[2]; [12],23%
same,decrease of death,[2]; [12],23%
same,decrease of death due to stroke,[2]; [12],10%
same,decrease of sudden cardiac death,[2]; [12],64%
"CCCCc1oc2ccc(NS(C)(=O)=O)cc2c1C(=O)c1ccc(OCCCN(CCCC)CCCC)cc1 [dronedarone, 2-n-Butyl-3-[4-(3-di-n-butylaminopropoxy)benzoyl]-5-methylsulphonamidobenzofuran]",reduction in Vcfmean (myocardial contractility),[3],-0.28 s⁻¹
same,inhibition of CYP2D6 in vivo,[4],weak inhibitor
same,"Resting diastolic blood pressure, change",[5]; single dose,−3%
same,"Resting heart rate, change",[5]; single dose,2%
same,"Resting systolic blood pressure, change",[5]; single dose,−5%
same,"diastolic blood pressure during sub-maximal exercise, change from baseline",[5]; single dose,−2%
same,"heart rate during sub-maximal exercise, change from baseline",[5]; single dose,−3%
same,"systolic blood pressure during sub-maximal exercise, change from baseline",[5]; single dose,−2%
same,"PQ interval, change from baseline",[5]; single oral administration,increase
same,"T-wave amplitude, change from baseline",[5]; single oral administration,increase
same,risk of bradycardia,[2]; patients using both dronedarone and beta-blockers except sotalol,no clinically significant increase
same,increase of steady-state propranolol (80 mg OD) exposure,"[1]; male, 7 days",1.2-1.3 fold
same,AUC(0-t),[6]; AUC0-24,983 ng·h/mL
same,Cmax,[6]; Cmax,140 ng/mL
same,tmax,[6]; tmax,3.63 h
same,effect on alpha hydroxymetoprolol exposures,[7],without significant effect
COCCc1ccc(OCC(O)CNC(C)C)cc1 (stereo not shown) [metoprolol],metoprolol Cmax and AUC0-24h after 8 days of treatment,[8],significantly higher
same,AUC0-24,[8]; male,1541 (1563) ng · h/mL
same,AUC0-24 ratio estimate (day 13/day 5) and 90% CI,[8]; male,1.29 [1.08-1.55]
same,Cmax,[8]; male,100.6 (86.4) ng/mL
same,Cmax ratio estimate (day 13/day 5) and 90% CI,[8]; male,1.34 [1.08-1.66]
same,increase in AUC0-24,[8]; male,1.6 fold
same,increase in Cmax,[8]; male,1.8 fold
same,tmax,[8]; male,4.0 h
same,difference in metoprolol exposure (AUC) between poor and extensive CYP2D6 metabolizers,[9],6 fold
same,difference in metoprolol exposure (Cmax) between poor and extensive CYP2D6 metabolizers,[9],3 fold
CC(C)NCC(O)COc1cccc2ccccc12 (stereo not shown) [propranolol],magnitude of the PR prolongation,"[5]; after repeated administration, p<0.001",3.9%
same,magnitude of the T-wave increase,"[5]; after repeated administration, p=0.001",28.3%
same,reduction of HR,[5]; at steady state,−8.9%
same,mean change from baseline in QT,"[5]; based on AUC0-8 h, at steady state",3.6%
same,mean change from baseline in QTc,"[5]; based on AUC0-8 h, at steady state, p<0.001",−1.9%
same,"QT interval, change from baseline (resting electrocardiogram)",[5]; repeated daily dosing,4%
same,"QTc interval, change from baseline (resting electrocardiogram)",[5]; repeated daily dosing,−2%
same,"T-wave amplitude, change from baseline (resting electrocardiogram)",[5]; repeated daily dosing,28%
same,"PQ interval, change from baseline (resting electrocardiogram)",[5]; repeated once daily dosing,4%
same,"Resting electrocardiogram heart rate, change compared to baseline",[5]; repeated once daily dosing,−9%
same,"Resting diastolic blood pressure, change",[5]; repeated oral administration,−10%
same,"Resting heart rate, change",[5]; repeated oral administration,−8%
same,"Resting systolic blood pressure, change",[5]; repeated oral administration,−5%
same,"diastolic blood pressure during sub-maximal exercise, change from baseline",[5]; repeated oral administration,−2%
same,"heart rate during sub-maximal exercise, change from baseline",[5]; repeated oral administration,−16%
same,"systolic blood pressure during sub-maximal exercise, change from baseline",[5]; repeated oral administration,−12%
same,"Resting diastolic blood pressure, change",[5]; single dose,−4%
same,"Resting heart rate, change",[5]; single dose,−10%
same,"Resting systolic blood pressure, change",[5]; single dose,−3%
same,"diastolic blood pressure during sub-maximal exercise, change from baseline",[5]; single dose,2%
same,"heart rate during sub-maximal exercise, change from baseline",[5]; single dose,−17%
same,"systolic blood pressure during sub-maximal exercise, change from baseline",[5]; single dose,−13%
same,AUC0-12,[1],318.75 (178.62) ng · h/ml
same,AUClast,[1],360.85 (210.30) ng · h/ml
same,Cmax,[1],59.79 (33.77) ng/ml
same,tmax,[1],2.19 (0.66) h
